The values that follow come from US20050075375A1 (priority 2003, published 2005).

The first assay has as its system monocistronic NK5.1 HCV replicon in Huh7 cells. Put plainly: HCV replicon assay, monocistronic replicon cell line. The format is cell-based, hepatitis C virus. Particulars: Hepatitis C virus, Huh-7, 72 h; Table 1; monocistronic replicon in Huh7 cells, 3 days incubation, HCV RNA/GAPDH RNA by TaqMan RT-PCR; read-out: Mono EC50 Median. In outline:
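Huh7 cells carrying the monocistronic NK5.1 replicon, seeded 24 h before dosing, were exposed to six-point half-log compound series (0.6% DMSO) for 3 days at 37 °C. Replicon RNA was quantified by TaqMan RT-PCR, normalised to GAPDH and compared with DMSO controls to derive EC50.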
Take `Cc1cc(-c2c(O)ccc3ccccc23)n(-c2ccccc2C(F)(F)F)n1` [Compound 6, 1-[5-Methyl-2-(2-trifluoromethyl-phenyl)-2H-pyrazol-3-yl]-naphthalen-2-ol]: the concentration for a half-maximal effect (EC50) stood at 13 µM.
Still for that read-out and setting: the value for `O=[N+]([O-])c1cccnc1-c1noc(-c2cc(Br)ccc2O)n1` [Compound 155, 4-Bromo-2-[3-(3-nitro-pyridin-2-yl)-[1,2,4]oxadiazol-5-yl]-phenol] was more than 19 µM; that for `COc1ccc(-c2ccn(-c3ccccn3)n2)c(O)c1OC` [Compound 118, 2,3-Dimethoxy-6-(1-pyridin-2-yl-1H-pyrazol-3-yl)-phenol] was 23.8 µM.
Same read-out and setting: the value for `Oc1ccc(F)cc1-c1nc(-c2ccc(C(F)(F)F)cn2)no1` [Compound 219, 4-Fluoro-2-[3-(5-trifluoromethyl-pyridin-2-yl)-[1,2,4]oxadiazol-5-yl]-phenol] was more than 32 µM.
`COc1cccc(-c2nc(-c3ccc(C(F)(F)F)cn3)no2)c1` [Compound 220, 2-[5-(3-Methoxy-phenyl)-[1,2,4]oxadiazol-3-yl]-5-trifluoromethyl-pyridine]: the EC50 is more than 32 µM.
As for `Cc1cc(-c2c(O)ccc3ccccc23)nn1-c1ccccc1` [Compound 4, 1-(5-Methyl-1-phenyl-1H-pyrazol-3-yl)-naphthalen-2-ol], the EC50 was more than 19 µM.
On to `COc1ccc(O)c(-c2nc(-c3ncccc3[N+](=O)[O-])no2)c1` [Compound 160, 4-Methoxy-2-[3-(3-nitro-pyridin-2-yl)-[1,2,4]oxadiazol-5-yl]-phenol], for which the EC50 is more than 19 µM.
As to `COc1ccc(OCc2ccccc2)c(-c2ccn(Cc3ccc4ccccc4n3)n2)c1` [Compound 112, 2-[3-(2-Benzyloxy-5-methoxy-phenyl)-pyrazol-1-ylmethyl]-quinoline], the concentration for a half-maximal effect (EC50) worked out at 6 µM.
Same read-out and setting: the value for `Oc1ccc(O)c(-c2nc(-c3ncccc3-c3ccccc3)no2)c1` [Compound 236, 2-[3-(3-Phenyl-pyridin-2-yl)-[1,2,4]oxadiazol-5-yl]-benzene-1,4-diol] was 2.2 µM.

The assay is the same for the next values; noted with them: Hepatitis C virus, Huh-7, 72 h; table T3 (compounds 471-640); monocistronic replicon in Huh7 cells, 3 days incubation, HCV RNA/GAPDH RNA by TaqMan RT-PCR; read-out: Mono EC50 Median.
With `CC(C)(C)c1ccc(O)c(-c2nc(-c3ccc(C(F)(F)F)cn3)n[nH]2)c1` [Compound 507, 4-tert-Butyl-2-[5-(5-trifluoromethyl-pyridin-2-yl)-2H-[1,2,4]triazol-3-yl]-phenol], the 50% effective concentration (EC50) is more than 19 µM.
The same measure, in the same setting: the value for `COc1ccc(-c2nc(-c3cnccn3)n[nH]2)c(O)c1` [Compound 584, 5-Methoxy-2-(5-pyrazin-2-yl-2H-[1,2,4]triazol-3-yl)-phenol] was more than 32 µM; that for `COc1ccc(O)c(-c2nc(-c3ncccc3C(F)(F)F)nn2C)c1` [Compound 632, 4-Methoxy-2-[2-methyl-5-(3-trifluoromethyl-pyridin-2-yl)-2H-[1,2,4]triazol-3-yl]-phenol] was 31 µM; that for `Oc1ccc(O)c(-c2nc(-c3ncccc3C(F)(F)F)n[nH]2)c1` [Compound 546, 4-Hydroxy-2-[5-(3-trifluoromethyl-pyridin-2-yl)-2H-[1,2,4]triazol-3-yl]-phenol] was more than 19 µM.
On the same count and under the same terms, the same measure for `Oc1ccc(Br)cc1-c1ncn(-c2ncccc2C(F)(F)F)n1` [Compound 634, 4-Bromo-2-[1-(3-trifluoromethyl-pyridin-2-yl)-1H-[1,2,4]triazol-3-yl]-phenol]: 3.8 µM; for `COc1ccc(-c2nc(-c3ncccc3C(F)(F)F)n[nH]2)c(O)c1` [Compound 541, 5-Methoxy-2-[5-(3-trifluoromethyl-pyridin-2-yl)-2H-[1,2,4]triazol-3-yl]-phenol]: more than 19 µM; for `Oc1c(-c2nc(-c3cnccn3)n[nH]2)ccc2ccccc12` [Compound 591, 2-(5-pyrazin-2-yl-2H-[1,2,4]triazol-3-yl)-naphthalen-1-ol]: 16 µM.
On the same count and under the same terms, the value for `FC(F)(F)c1ccncc1-c1n[nH]c(-c2c(Cl)cccc2Cl)n1` [Compound 477, 3-[5-(2,6-Dichloro-phenyl)-1H-[1,2,4]triazol-3-yl]-4-trifluoromethyl-pyridine] was more than 32 µM.
`Cn1nc(-c2ncccc2C(F)(F)F)nc1-c1cc(Br)ccc1O` [Compound 633, 4-Bromo-2-[2-methyl-5-(3-trifluoromethyl-pyridin-2-yl)-2H-[1,2,4]triazol-3-yl]phenol]: the EC50 was found to be 3.6 µM.
Regarding `CC(C)(C)c1ccc(O)c(-c2nc(-c3ncccc3C(F)(F)F)n[nH]2)c1` [Compound 531, 4-tert-Butyl-2-[5-(3-trifluoromethyl-pyridin-2-yl)-2H-[1,2,4]triazol-3-yl]-phenol], the EC50 is more than 19 µM.

The assay is the same for the next values; noted with them: Hepatitis C virus, Huh-7; monocistronic NK5.1 HCV replicon in Huh7 cells; median value; read-out: Mono EC50 Median.
Regarding `COc1ccc(F)c(-c2nc(-c3ccccn3)n[nH]2)c1` [Compound 388, 2-[5-(2-Fluoro-5-methoxy-phenyl)-1H-[1,2,4]triazol-3-yl]-pyridine], the EC50 was more than 19 µM.
Turning to `CC(C)(C)c1ccc(O)c(-c2nc(-c3nccc4ccccc34)n[nH]2)c1` [Compound 367, 4-tert-Butyl-2-(5-isoquinolin-1-yl-2H-[1,2,4]triazol-3-yl)-phenol], the EC50 is more than 32 µM.
As for `COc1ccc(O)c(-c2nc(-c3ccccn3)n[nH]2)c1` [Compound 360, 4-Methoxy-2-(5-pyridin-2-yl-2H-[1,2,4]triazol-3-yl)-phenol], the half-maximal effective concentration (EC50) was 5.4 µM.
On the same count and under the same terms, the value for `Oc1ccc(F)cc1-c1nc(-c2ccc(C(F)(F)F)cn2)no1` [Compound 219, 4-Fluoro-2-[3-(5-trifluoromethyl-pyridin-2-yl)-[1,2,4]oxadiazol-5-yl]-phenol] was more than 32 µM; that for `Cc1ccccc1-c1nnc(-c2ncc(C(F)(F)F)cc2Cl)o1` [Compound 341, 3-Chloro-2-(5-o-tolyl-[1,3,4]oxadiazol-2-yl)-5-trifluoromethyl-pyridine] was 20 µM; that for `COc1cccc(-c2nc(-c3ccc(C(F)(F)F)cn3)no2)c1` [Compound 220, 2-[5-(3-Methoxy-phenyl)-[1,2,4]oxadiazol-3-yl]-5-trifluoromethyl-pyridine] was more than 32 µM.
Still for that read-out and setting: the same measure for `Cc1cccc(-c2n[nH]c(-c3ccccc3F)n2)n1` [Compound 465, 2-[5-(2-Fluoro-phenyl)-1H-[1,2,4]triazol-3-yl]-6-methyl-pyridine]: more than 32 µM; for `Cc1cccc(-c2n[nH]c(-c3ccccc3O)n2)n1` [Compound 402, 2-(5-(6-methyl-pyridin-2-yl)-2H-[1,2,4]triazol-3-yl)-phenol]: more than 19 µM; for `Fc1cccc(Cl)c1-c1nc(-c2ccccn2)n[nH]1` [Compound 436, 2-[5-(2-Fluoro-6-chloro-phenyl)-1H-[1,2,4]triazol-3-yl]-pyridine]: 16 µM.
Still for that read-out and setting: the value for `Oc1ccc(O)c(-c2nc(-c3ncccc3-c3ccccc3)no2)c1` [Compound 236, 2-[3-(3-Phenyl-pyridin-2-yl)-[1,2,4]oxadiazol-5-yl]-benzene-1,4-diol] was 2.2 µM.
As for `Cc1cccc(-c2n[nH]c(-c3c(F)cccc3F)n2)n1` [Compound 468, 2-[5-(2,6-Difluoro-phenyl)-1H-[1,2,4]triazol-3-yl]-6-methyl-pyridine], the EC50 is more than 32 µM.
In the case of `CCOc1cccc(-c2nc(-c3ccccn3)n[nH]2)c1O` [Compound 355, 6-Ethoxy-2-(5-pyridin-2-yl-2H-[1,2,4]triazol-3-yl)-phenol], the EC50 was more than 19 µM.
In the case of `COc1ccc(O)c(-c2noc(-c3ccco3)n2)c1` [Compound 302, 2-(5-Furan-2-yl-[1,2,4]oxadiazol-3-yl)-4-methoxy-phenol], the half-maximal effective concentration (EC50) came to 16 µM.
The same measure, in the same setting: the value for `Cc1cccc(-c2n[nH]c(-c3c(F)cccc3Cl)n2)n1` [Compound 469, 2-[5-(2-Fluoro-6-chloro-phenyl)-1H-[1,2,4]triazol-3-yl]-6-methyl-pyridine] was more than 32 µM; that for `Cc1cccnc1-c1noc(-c2cc(N)ccc2O)n1` [Compound 270, 4-Amino-2-[3-(3-methyl-pyridin-2-yl)-[1,2,4]oxadiazol-5-yl]-phenol] was 27.7 µM.
As to `CC(C)c1ccc(-c2nc(-c3ccccn3)n[nH]2)cc1` [Compound 389, 2-[5-(4-Isopropyl-phenyl)-1H-[1,2,4]triazol-3-yl]-pyridine], the half-maximal effective concentration (EC50) was more than 19 µM.
